In ChEMBL document CHEMBL5726081, “Therapeutic inhibitory compounds” (2017):

Biological target: Plasma kallikrein (Homo sapiens, UniProt P03952)
Assay: In Vitro Enzyme Inhibition Assay: The ability of the compounds disclosed herein to inhibit human plasma kallikrein activity was quantified according to the procedures below.A 10 mM solution of the test compound was made in DMSO. […] A control tube containing only DMSO is included. […] 50 μL was removed from this mixture and placed into duplicate wells on a Microfluor 1Black U-bottom microtiter plate (Thermo Scientific). This plate was incubated for 5 minutes at 37° C. To each well, 50 μL of pre-warmed 2×PFR-AMC was added to start the enzymatic reaction. Cleavage of PFR-AMC was monitored in a Biotek Synergy H4 reader set at 37° C. Readings are taken every 43 seconds for 1 hour.

Chain of Plasma kallikrein (P03952 20-390 limits assumed): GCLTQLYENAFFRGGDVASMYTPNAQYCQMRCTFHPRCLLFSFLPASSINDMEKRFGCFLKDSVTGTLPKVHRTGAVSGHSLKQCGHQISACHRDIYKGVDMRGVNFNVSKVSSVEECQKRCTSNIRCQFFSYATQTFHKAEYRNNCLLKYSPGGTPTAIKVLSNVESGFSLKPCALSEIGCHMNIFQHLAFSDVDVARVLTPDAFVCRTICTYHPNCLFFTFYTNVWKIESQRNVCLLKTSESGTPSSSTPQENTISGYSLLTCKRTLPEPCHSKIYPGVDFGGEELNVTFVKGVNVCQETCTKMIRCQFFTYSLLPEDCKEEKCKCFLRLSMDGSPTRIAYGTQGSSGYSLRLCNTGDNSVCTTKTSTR
Chain of Plasma kallikrein (P03952 391-638 limits assumed): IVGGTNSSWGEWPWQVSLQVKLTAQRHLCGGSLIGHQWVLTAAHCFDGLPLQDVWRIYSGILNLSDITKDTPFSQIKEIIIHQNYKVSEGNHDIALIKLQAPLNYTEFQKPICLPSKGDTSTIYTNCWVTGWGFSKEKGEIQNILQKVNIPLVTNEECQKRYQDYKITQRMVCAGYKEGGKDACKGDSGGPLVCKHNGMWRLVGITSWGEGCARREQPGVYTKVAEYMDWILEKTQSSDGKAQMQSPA

With `Cc1nc(N)ccc1CNC(=O)c1ccnc(Cc2cc(C#N)c3ncc(Cl)cc3c2)c1` as the compound, how does the IC50 read?
The IC50 was under 0.1 µM.

For `N#Cc1ccc2cc(Cc3cc(C(=O)NCc4cc5c(Cl)c[nH]c5cc4F)ccn3)ccc2n1`, which IC50 is on record?
The IC50 was under 0.1 µM.
